The test system of series [1] is K91 E. coli. Format: cell-based. How it is done:
(§1) The biological activities of these peptides were measured using human erythrocytes and E. coli as models for mammalian and bacterial cells, respectively. Hemolysis was monitored in 10 mM Tris, 150 mM NaCl, pH 7.0, while the bacterial assay was conducted in minimal media M9 (Table 1); both of these solutions are sufficiently transparent to allow CD and ultracentrifugation measurements (supplementary material). Under the assay conditions, the peptides gave CD spectra similar to those in Tris buffer, with the exception of H-(β^3-HLeu-β^3-HLys-β^3-HLeu)n-OH, n=5 and 6.
Antibacterial assay was performed by incubation of K 91 E. coli and peptide of different concentrations in minimal media, at pH 7.4. The peptide solution (50 μL) and K 91 E. coli culture (20 μL, grown in minimal media for 24 hr-36 hr) were mixed with 1 mL minimal media. […] The peptide dose required for 50% suppress of bacterial growth was obtained from the smooth fitted OD600 vs. log[peptide] curve.
(§2) The activity and selectivity of peptide 1 and peptide 2 were examined by antibacterial assay and hemolysis experiments. E. Coli and human erythrotytes (RBC) were used as models for bacterial cell and mammalian cell, respectively. The peptide concentration required for 50% bacterial growth suppression (IC50), and peptide concentration required for 50% RBC lysis (HD50) are listed in Table 3. […] The antibacterial activities of peptide 1 and peptide 2 are about the same except peptide 2 has slightly lower IC50. Similar trend has been observed in the previous study, that longer peptide tends to have higher activity. However, the difference in IC50 is much smaller for this series of peptide than the previously studied ones. Antibacterial peptide with good selectivity is usually represented by its low hemolysis ability. […] The HD50 is 670 μM for peptide 1 and 240 μM for peptide 2, which gives a selectivity of 111 for peptide 1 and 60 for peptide 2.

A short description of series [2]: Peptide binding to phospholipid bilayers by CD, SOPS/SOPC (1:9) vesicles. The following applies: single site binding fit, 42 (peptide 1) or 52 (peptide 2) lipids per peptide. The protocol: The binding affinity of peptides to phospholipid bilayers was measured using CD spectra of the peptide in the presence of varying lipid vesicle concentrations. Peptides show little structure from CD spectra in water. Upon addition of lipid vesicles, the ellipiticity at 214 nm increased as a consequence of helix formation due to interactions between the peptide and lipid surface. Small unilamellar vesicles (SUV) of SOPC/SOPS were prepared by sonicating lipid large vesicles in 10 mM phosphate buffer, pH 7. CD spectra were taken before and after the addition of aliquots of vesicle to 2 mL peptide solution in 10 mM phosphate buffer, pH 7.
The dissociation constant Kd was determined from equation (1) for single site binding:
[P](R−1)−c/n−Kd+c/(nR)=0 (1)
where [P] and c are peptide and lipid molar concentrations, respectively, n is the number of lipids per peptide binding site. R is the fraction of peptide bound, which can be calculated from equation (2): […]
To get better understanding of the binding mechanism of the peptides to lipid membranes, the dissociation constants (Kd) of peptide 1 and peptide 2 to small unilamellar lipid vesicles (SUV) were measured. Since binding to DPC micelle drives peptide 1 and peptide 2 from random coil conformation to helical conformation, the binding equilibrium can be monitored by CD spectroscopy. […]

In series [3] the test system is recA-lux bioluminescence. Kind of series: Inhibition of recA-lux bioluminescence in M9 media. In kind it is cell-based. The following applies: inhibition of recA-lux bioluminescence in M9 media (Van Dyk lab). How it is done: (§3) ∇in M9 medium (data from Hamuro et al., ref. 5) # In M9 medium.+Hemolysis experiments were performed by incubating a 0.25% suspension of human RBc's in 10 mM Tris buffer containing […] at pH 7.0 with varying amounts of peptide. The hemolytic dose required to lyse 50% of the RBC's is reported as the HD50.
The biolumenescence data result from test carried out according to U.S. Pat. No. 5,683,868, Highly Sensitive Method For Detecting Environmental Insults, issued Nov. 4, 1997 to LaRossa et al., the entire contents of the disclosure of are hereby incorporated by reference, The tests described in this patent permit antibacterial properties of peptides or any other materials to be assessed. […] Along these lines, FIG. 5 illustrates a relationship between relative light units and minutes of exposure of bacteria to the various materials in the legend. P×B represents polymyxin, a known antibacterial material. In the graph, a decrease in RULs corresponds to a decrease in bacteria. […]

In series [4] the test system is human erythrocytes (RBC's). The experiment in a line: Hemolysis assay, 50% lysis of RBC's. In kind it is cell-based. How it is done:
as §1, §3
(§4) Hemolysis experiments were carried out by incubating 0.25% suspension of human erythrocytes (RBC's) with peptides of different concentrations in 150 mM sodium choloride, 10 mM Tris buffer, pH 7.0. The sample was prepared by combining 400 μL of the RBC suspension and […] of the peptide solution. After incubated the sample at 37— C. for 1 hour, the sample was centrifuged at 14,000 rpm for 5 min, and the OD414 of the supernatant was measured. Mellitin (50 μM) was used to get 100% hemolysis. The hemolytic IC50 was obtained by plotting hemolysis percentage vis. peptide concentration, and the concentration required for 50% hemolysis was determined from the smooth curve-fitted graph.
as §2

Series [5] can be described thus: Hemolysis assay, 50% lysis of RBC's. In kind it is cell-based, human. To be noted: human, 0.25% suspension of human erythrocytes (RBCs). How it is done:
as §1, §3, §4, §2

A short description of series [6]: Peptide binding to phospholipid bilayers by CD, SOPC vesicles. To be noted: for helix formation on phosphocholin vesicles (POPC and SOPC): CD, model of mammalian cell membrane.
[7] abbreviates: K91 E. coli, minimal media, pH 7.4 (DeGrado lab), read-out: IC50 *.

Where two headings read alike, the source gives them in different places.

Usually IC50 stands for the concentration that inhibits the measured activity by half. A word on the Kd: it is the constant that tells how readily two partners part at equilibrium. A higher Kd goes with lower affinity. As usually defined, the HC50 is the concentration giving 50% haemolysis.

Consider `CC(C)[C@@H](CC(N)=O)NC(=O)C[C@H](CCCCN)NC(=O)C[C@H](C)NC(=O)C[C@@H](NC(=O)C[C@H](CCCCN)NC(=O)C[C@H](C)NC(=O)C[C@@H](NC(=O)C[C@H](CCCCN)NC(=O)C[C@H](C)NC(=O)C[C@@H](NC(=O)C[C@H](CCCCN)NC(=O)C[C@H](C)N)C(C)C)C(C)C)C(C)C` [Peptide 1], for which the IC50 in series [1] (setting [7]) turned out to be 6 µM; in series [1] (Table 5, read-out: IC50), 6 µM; in series [3], 10 µM. In series [2], binding was characterised by a dissociation constant (Kd) of 1.4 µM. For the same compound, the HC50 in series [4] was determined as 670 µM. Besides, the HD50 in series [4] was found to be 670 µM. This compound also registered a concentration for 50% haemolysis (HC50) at 1 h in series [5] (pH 7) of 670 µM. In series [6], the “helix formation on phosphocholin vesicles (POPC and SOPC)” value is “does not show any formation of helix”.
For `CC(C)[C@@H](CC(N)=O)NC(=O)C[C@H](CCCCN)NC(=O)C[C@H](C)NC(=O)C[C@@H](NC(=O)C[C@H](CCCCN)NC(=O)C[C@H](C)NC(=O)C[C@@H](NC(=O)C[C@H](CCCCN)NC(=O)C[C@H](C)NC(=O)C[C@@H](NC(=O)C[C@H](CCCCN)NC(=O)C[C@H](C)NC(=O)C[C@@H](NC(=O)C[C@H](CCCCN)NC(=O)C[C@H](C)N)C(C)C)C(C)C)C(C)C)C(C)C` [Peptide 2], the IC50 in series [1] (setting [7]) is 4 µM; in series [1] (Table 5, read-out: IC50) it was 4 µM; in series [3] it was 3 µM. The Kd in series [2] came out at 0.3 µM; in series [6] (SOPC LUV), 15 µM. The same compound yielded an HC50 in series [4] of 240 µM. The HD50 in series [4] came out at 240 µM. In series [5], this compound yielded an HC50 at 1 h of 240 µM. For the same compound, the “helix formation on phosphocholin vesicles (POPC and SOPC)” value in series [6] is reported as “shows increase of helix content”.

For the origin of these results see patent publication US6677431B2, “Design, preparation, and properties of antibacterial β-peptides” (The Trustees of the University of Pennsylvania, priority 1999, dated 2004).
